Experiments:
[1] = molecular target: PDGFRα (Homo sapiens, UniProt P16234); assay: Kinase enzyme activity assay (mobility shift assay, Carna); details: for Percentage inhibition of kinase enzyme activity: PDGFRα, 1 µmol/L of BTK inhibitor
[2] = molecular target: T1, TAOK2 (Homo sapiens, UniProt Q9UL54); assay: Kinase panel profiling at 1 µmol/L (mobility shift assay, Carna); type: biochemical; details: 1 µmol/L of BTK inhibitor
T1 construct: purchased Carna Biosciences
T1 sequence (Q9UL54 1-1235): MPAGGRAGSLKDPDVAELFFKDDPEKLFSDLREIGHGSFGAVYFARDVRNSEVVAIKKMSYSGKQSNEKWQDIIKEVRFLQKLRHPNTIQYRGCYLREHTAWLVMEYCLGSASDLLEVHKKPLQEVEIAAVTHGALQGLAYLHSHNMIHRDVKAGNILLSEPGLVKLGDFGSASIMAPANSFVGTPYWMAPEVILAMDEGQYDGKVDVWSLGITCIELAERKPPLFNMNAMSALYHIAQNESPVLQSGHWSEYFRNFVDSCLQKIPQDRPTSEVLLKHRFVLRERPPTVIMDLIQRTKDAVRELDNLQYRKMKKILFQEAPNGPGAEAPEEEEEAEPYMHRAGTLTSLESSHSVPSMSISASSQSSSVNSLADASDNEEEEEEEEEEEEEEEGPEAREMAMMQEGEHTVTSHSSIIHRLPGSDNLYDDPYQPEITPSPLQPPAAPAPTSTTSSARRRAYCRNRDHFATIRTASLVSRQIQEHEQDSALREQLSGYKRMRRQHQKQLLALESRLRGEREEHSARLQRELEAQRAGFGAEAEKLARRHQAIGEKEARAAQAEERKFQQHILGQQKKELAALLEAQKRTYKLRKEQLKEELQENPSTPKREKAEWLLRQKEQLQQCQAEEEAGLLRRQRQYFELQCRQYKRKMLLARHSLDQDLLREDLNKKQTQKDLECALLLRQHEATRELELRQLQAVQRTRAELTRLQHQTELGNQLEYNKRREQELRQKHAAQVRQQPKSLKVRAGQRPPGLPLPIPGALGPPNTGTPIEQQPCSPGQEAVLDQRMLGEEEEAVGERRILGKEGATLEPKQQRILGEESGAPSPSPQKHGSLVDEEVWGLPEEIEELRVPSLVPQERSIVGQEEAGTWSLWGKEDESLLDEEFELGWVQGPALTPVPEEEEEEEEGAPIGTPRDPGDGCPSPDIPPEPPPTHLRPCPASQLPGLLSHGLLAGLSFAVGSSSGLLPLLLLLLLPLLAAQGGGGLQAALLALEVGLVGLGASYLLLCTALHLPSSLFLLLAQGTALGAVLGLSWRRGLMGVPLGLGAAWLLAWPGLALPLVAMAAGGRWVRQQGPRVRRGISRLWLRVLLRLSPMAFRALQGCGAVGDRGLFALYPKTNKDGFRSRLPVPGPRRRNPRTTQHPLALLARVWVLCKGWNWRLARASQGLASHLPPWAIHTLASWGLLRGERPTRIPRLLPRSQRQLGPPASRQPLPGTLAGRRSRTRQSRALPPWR

[3] = molecular target: T2, Haspin (Homo sapiens, UniProt Q8TF76); assay: as above; type: biochemical; details: 1 µmol/L of BTK inhibitor
T2 construct: purchased Carna Biosciences
T2 sequence (Q8TF76 1-798): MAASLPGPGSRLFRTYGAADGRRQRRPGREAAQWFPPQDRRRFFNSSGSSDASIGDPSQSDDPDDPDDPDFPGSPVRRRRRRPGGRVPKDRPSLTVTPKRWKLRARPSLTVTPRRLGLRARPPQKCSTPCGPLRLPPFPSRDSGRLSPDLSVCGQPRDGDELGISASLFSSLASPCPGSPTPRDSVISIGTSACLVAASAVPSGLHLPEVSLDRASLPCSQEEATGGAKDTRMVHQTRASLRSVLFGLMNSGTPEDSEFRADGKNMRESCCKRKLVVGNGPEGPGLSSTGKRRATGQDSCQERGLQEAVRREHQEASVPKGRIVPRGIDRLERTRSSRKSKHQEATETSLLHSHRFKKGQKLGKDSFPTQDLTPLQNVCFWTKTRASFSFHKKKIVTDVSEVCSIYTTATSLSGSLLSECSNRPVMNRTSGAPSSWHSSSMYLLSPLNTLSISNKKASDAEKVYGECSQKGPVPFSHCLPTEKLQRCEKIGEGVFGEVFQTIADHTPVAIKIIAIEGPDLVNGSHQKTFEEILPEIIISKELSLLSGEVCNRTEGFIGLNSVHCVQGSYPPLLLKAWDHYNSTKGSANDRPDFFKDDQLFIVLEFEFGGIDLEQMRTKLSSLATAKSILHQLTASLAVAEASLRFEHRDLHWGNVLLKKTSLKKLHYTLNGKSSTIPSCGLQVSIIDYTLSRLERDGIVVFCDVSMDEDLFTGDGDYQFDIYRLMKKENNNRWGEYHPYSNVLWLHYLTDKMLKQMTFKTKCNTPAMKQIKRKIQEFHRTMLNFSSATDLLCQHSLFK

[4] = molecular target: T3, TYK2 (Homo sapiens, UniProt P29597); assay: as above; type: biochemical; details: 1 µmol/L of BTK inhibitor
T3 construct: purchased Carna Biosciences

[5] = molecular target: T4, ITK (Homo sapiens, UniProt Q08881); assay: as above; type: biochemical; details: 1 µmol/L of BTK inhibitor
T4 construct: purchased Carna Biosciences
T4 sequence (Q08881 1-620): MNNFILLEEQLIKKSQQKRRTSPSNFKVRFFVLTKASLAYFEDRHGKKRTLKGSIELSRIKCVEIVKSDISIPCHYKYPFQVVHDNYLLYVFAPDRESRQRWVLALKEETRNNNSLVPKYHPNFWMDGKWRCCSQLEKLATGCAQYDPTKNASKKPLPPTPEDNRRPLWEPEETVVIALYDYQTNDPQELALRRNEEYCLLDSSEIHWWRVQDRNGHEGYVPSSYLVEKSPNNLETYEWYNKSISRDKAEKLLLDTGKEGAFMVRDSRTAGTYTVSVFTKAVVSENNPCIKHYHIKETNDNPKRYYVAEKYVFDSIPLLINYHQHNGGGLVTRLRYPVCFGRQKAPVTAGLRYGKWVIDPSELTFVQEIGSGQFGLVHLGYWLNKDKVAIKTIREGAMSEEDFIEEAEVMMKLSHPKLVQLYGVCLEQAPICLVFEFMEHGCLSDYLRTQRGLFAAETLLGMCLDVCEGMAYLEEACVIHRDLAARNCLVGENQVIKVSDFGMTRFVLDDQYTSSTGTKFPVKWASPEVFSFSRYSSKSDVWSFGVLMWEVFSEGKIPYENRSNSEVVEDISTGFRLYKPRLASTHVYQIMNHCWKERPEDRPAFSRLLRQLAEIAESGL

[6] = molecular target: T5, EPHA4 (Homo sapiens, UniProt P54764); assay: as above; type: biochemical; details: 1 µmol/L of BTK inhibitor
T5 construct: purchased Carna Biosciences

[7] = molecular target: Aurora B (Homo sapiens, UniProt Q96GD4); assay: as above; details: for Percentage inhibition of kinase enzyme activity: AurB, 1 µmol/L of BTK inhibitor
Aurora B, sequence (Q96GD4 whole entry): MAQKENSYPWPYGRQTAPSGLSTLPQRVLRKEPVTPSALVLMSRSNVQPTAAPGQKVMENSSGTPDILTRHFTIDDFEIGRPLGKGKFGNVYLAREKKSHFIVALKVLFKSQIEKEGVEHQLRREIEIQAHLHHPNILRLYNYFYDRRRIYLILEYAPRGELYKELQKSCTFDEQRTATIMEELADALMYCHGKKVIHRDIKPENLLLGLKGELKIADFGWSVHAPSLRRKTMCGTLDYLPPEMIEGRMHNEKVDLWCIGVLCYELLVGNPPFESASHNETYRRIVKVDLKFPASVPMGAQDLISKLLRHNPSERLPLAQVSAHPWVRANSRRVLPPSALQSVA
Aurora B, sequence (Q9NQS7 803-916 partner limits assumed): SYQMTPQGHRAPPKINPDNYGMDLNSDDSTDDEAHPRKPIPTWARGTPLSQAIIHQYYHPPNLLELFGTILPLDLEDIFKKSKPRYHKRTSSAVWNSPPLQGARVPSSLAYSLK

T3 sequence (P29597 whole entry): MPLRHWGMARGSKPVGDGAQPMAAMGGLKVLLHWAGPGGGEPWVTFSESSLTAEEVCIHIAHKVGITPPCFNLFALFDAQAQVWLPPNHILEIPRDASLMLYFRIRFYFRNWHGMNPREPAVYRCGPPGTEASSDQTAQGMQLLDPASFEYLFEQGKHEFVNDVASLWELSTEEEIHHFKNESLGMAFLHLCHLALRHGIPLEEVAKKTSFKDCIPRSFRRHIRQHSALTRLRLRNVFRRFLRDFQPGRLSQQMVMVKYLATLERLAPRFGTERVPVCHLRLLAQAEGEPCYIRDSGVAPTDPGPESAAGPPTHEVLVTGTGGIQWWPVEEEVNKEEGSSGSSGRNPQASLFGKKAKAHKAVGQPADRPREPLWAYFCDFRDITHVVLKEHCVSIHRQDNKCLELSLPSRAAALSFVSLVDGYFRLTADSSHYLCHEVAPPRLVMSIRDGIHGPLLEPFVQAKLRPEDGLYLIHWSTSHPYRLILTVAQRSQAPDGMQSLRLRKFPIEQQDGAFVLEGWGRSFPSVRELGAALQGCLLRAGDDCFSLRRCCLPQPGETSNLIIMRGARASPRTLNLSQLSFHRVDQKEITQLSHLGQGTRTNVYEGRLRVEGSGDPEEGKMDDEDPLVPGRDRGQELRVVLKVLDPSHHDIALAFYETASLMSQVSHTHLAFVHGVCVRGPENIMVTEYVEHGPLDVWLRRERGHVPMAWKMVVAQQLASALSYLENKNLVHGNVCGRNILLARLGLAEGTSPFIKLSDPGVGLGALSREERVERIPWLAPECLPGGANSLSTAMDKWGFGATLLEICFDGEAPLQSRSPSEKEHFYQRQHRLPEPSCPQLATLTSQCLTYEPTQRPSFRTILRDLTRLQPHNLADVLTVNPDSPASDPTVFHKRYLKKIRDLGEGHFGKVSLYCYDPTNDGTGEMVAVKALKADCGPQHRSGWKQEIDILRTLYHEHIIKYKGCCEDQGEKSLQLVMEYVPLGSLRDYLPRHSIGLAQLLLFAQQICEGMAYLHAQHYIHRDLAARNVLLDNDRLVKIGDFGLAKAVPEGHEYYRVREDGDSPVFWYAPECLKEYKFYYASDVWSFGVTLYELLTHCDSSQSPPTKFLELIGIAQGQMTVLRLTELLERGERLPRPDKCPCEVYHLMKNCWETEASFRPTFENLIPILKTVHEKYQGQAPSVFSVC
T5 sequence (P54764 20-986): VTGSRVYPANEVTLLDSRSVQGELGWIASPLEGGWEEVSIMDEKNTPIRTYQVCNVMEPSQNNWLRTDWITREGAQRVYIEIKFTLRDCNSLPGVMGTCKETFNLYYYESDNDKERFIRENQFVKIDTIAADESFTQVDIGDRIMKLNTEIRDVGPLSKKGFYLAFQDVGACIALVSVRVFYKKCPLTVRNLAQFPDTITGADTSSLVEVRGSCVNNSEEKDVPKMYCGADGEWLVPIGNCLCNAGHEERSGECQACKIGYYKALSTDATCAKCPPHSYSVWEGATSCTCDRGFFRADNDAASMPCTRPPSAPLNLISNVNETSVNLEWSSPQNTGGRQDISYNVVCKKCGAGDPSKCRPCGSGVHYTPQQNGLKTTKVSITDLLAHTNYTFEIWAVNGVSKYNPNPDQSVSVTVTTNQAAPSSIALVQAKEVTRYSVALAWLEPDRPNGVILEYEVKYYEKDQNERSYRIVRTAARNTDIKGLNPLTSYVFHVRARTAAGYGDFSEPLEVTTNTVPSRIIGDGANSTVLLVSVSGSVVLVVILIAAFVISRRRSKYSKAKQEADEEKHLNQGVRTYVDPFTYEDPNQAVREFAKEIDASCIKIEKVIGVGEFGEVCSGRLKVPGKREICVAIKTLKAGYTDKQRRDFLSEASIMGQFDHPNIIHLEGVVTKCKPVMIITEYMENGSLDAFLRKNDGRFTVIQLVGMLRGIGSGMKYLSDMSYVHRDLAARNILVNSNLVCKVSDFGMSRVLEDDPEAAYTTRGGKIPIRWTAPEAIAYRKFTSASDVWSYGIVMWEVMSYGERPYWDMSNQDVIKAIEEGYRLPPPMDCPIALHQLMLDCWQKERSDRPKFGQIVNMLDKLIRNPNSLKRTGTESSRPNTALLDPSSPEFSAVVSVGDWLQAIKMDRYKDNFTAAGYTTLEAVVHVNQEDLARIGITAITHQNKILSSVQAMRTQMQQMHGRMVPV
PDGFRα, sequence (P16234 24-1089): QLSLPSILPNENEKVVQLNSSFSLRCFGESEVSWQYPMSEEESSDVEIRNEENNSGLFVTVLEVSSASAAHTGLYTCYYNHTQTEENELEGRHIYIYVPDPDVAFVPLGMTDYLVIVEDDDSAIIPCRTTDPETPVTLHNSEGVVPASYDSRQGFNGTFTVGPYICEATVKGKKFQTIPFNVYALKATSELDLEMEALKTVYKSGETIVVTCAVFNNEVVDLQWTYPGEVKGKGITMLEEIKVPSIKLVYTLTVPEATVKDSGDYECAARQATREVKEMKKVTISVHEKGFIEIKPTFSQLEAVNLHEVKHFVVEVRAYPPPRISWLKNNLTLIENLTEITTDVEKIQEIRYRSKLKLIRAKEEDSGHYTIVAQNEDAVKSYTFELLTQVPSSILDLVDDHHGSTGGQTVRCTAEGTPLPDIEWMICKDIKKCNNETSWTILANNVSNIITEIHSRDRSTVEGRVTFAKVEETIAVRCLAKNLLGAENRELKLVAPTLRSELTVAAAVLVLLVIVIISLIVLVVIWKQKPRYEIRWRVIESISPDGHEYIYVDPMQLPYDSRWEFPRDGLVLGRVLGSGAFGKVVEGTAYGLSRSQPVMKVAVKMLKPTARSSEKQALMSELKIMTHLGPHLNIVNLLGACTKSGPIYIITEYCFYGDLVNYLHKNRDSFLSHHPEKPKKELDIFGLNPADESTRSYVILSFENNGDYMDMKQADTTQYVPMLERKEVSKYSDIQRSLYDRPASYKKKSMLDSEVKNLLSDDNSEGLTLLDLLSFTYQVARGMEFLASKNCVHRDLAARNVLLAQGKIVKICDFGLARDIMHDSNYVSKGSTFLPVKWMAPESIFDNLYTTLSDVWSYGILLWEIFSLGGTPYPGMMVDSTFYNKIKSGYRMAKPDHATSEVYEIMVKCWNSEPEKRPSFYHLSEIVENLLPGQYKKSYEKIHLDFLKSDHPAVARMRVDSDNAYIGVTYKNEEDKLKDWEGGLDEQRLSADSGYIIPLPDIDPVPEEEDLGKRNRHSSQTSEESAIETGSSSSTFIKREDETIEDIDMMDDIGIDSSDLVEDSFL

| Structure (SMILES) | Percentage inhibition of kinase enzyme activity [1] [%] | Percentage inhibition of kinase enzyme activity [2] [%] | Percentage inhibition of kinase enzyme activity [3] [%] | Percentage inhibition of kinase enzyme activity [4] [%] | Percentage inhibition of kinase enzyme activity [5] [%] | Percentage inhibition of kinase enzyme activity [6] [%] | Percentage inhibition of kinase enzyme activity [7] [%] | IC50 [1] [nM] | inhibition at 1 µM ([7]; read-out: Inhibition of Aurora B) [%] |
| --- | --- | --- | --- | --- | --- | --- | --- | --- | --- |
| CC#CC(=O)N1CCC[C@H]1c1nc(-c2ccc(C(=O)Nc3ccccn3)cc2)c2c(N)nccn12 [acalabrutinib] | 1.38 | 5.31 | 5.31 | 12.80 | 0.87 | -3.03 | 10.86 | – | – |
| C=CC(=O)N1CCC[C@@H](n2nc(-c3ccc(Oc4ccccc4)cc3)c3c(N)ncnc32)C1 [ibrutinib] | 94.28 | 5.25 | 2.53 | 6.93 | 93.10 | 12.63 | -1.10 | – | – |
| O=C(c1ccc(Oc2ccccc2)cc1Cl)c1c[nH]c2ncnc(N[C@@H]3CC[C@@H](CO)OC3)c12 [nemtabrutinib] | 88.08 | 41.31 | -1.40 | 10.79 | 8.66 | 82.34 | 57.52 | 12.4 | – |
| COc1ccc(F)cc1C(=O)NCc1ccc(-c2nn([C@@H](C)C(F)(F)F)c(N)c2C(N)=O)cc1 [pirtobrutinib] | 3.06 | 1.74 | -3.18 | -2.78 | 0.65 | 9.50 | 88.69 | – | > 75 |
| C=CC(=O)N1CCC([C@@H]2CCNc3c(C(N)=O)c(-c4ccc(Oc5ccccc5)cc4)nn32)CC1 [zanubrutinib] | 3.66 | – | – | – | -2.98 | 0.04 | – | – | – |

Reference: paper PMC12586182 (Frontiers in Oncology, 2025)
